From patent US20240059688A1, “CONOLIDINE ANALOGUES AS SELECTIVE ACKR3 MODULATORS FOR THE TREATMENT OF CANCER” (Luxembourg Institute of Health (LIH), priority 2020, published 2024)

How the values were obtained:
mouse ACKR3 = molecular target: T1, mouse ACKR3 (Mus musculus, UniProt P56485); test: NanoBiT-based β-arrestin-2 recruitment assay, mouse ACKR3 in U87 cells; assay type: cell-based; details: for agonist efficacy at mACKR3 compared to CXCL-12: NanoBiT β-arrestin-2 recruitment, reference ligand CXCL-12; for EC50: NanoBiT, U87 cells, FIG. 1 section C, read-out: EC50, β-arrestin-2 recruitment to mouse receptor (mACKR3)
T1 construct: expressed in transfected cells; host or cells: U87
T1 sequence (P56485 whole entry): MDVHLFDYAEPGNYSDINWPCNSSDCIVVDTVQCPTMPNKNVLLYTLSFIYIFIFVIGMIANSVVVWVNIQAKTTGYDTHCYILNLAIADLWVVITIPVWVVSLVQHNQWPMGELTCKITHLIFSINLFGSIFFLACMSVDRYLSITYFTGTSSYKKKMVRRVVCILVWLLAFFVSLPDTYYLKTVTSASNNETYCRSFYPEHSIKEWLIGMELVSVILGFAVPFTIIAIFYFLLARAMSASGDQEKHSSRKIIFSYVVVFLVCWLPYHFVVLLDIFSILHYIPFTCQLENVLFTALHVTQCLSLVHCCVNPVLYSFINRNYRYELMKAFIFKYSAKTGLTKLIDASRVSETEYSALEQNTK
T1 sequence (P32121 whole entry partner): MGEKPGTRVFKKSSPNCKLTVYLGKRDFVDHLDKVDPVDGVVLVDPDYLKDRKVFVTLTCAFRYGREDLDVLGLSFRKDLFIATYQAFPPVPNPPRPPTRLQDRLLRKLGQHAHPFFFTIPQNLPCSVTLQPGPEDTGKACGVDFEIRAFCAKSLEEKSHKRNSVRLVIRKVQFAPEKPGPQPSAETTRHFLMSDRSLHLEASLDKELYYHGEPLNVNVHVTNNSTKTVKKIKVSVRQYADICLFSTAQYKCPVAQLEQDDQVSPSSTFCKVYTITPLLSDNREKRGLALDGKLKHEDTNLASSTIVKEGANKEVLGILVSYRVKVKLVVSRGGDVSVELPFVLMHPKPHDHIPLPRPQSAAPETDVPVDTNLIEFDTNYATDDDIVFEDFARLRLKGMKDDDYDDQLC
Protocol: (§1) Concentration-response studies were performed with molecules WW-1 (conolidine) and WW-12 on the human and mouse ACKR3 receptors in U87 cells using a NanoBiT-based β-arrestin-2 recruitment assay […] to evaluate their efficacy and potency towards the two receptors.
(§2) Ligand-induced β-arrestin recruitment to chemokine and opioid receptors was monitored by NanoLuc complementation assay (NanoBiT, Promega). In brief, 1.2×10^6 U87 cells were plated in 10-cm culture dishes and 48 hours later co-transfected with pNBe vectors encoding GPCRs (ACKR3, MOR, DOR, KOR, or NOP) C-terminally tagged with SmBiT and human β-arrestin-1 (arrestin-2) or β-arrestin-2 (arrestin-3) N-terminally fused to LgBiT. 48 hours post-transfection cells were harvested, incubated 25 minutes at 37° C. with Nano-Glo Live Cell substrate diluted 200-fold and distributed into white 96-well plates (5×10^4 cells per well). Ligand-induced, β-arrestin to GPCRs was evaluated with a Mithras LB940 luminometer (Berthold Technologies, running on MicroWin 2010 5.19 software (Mikrotek Laborsysteme)) for 20 minutes.
(§3) For concentration-response curves (FIG. 2), the signal recorded with a saturating concentration of full agonist for each receptor was set as 100%. To evaluate the antagonist properties of ligands, full agonists of each receptor (50 nM BAM22 for MOR, 50 nM dynorphin A for KOR, 70 nM met-enkephalin for DOR, 70 nM nociceptin for NOP and 4 nM CXCL12 for ACKR3) were added after the 20-minute incubation with the ligands.

KOR = KOR (Homo sapiens, UniProt P41145); test: NanoBiT-based β-arrestin recruitment assay, KOR; assay type: cell-based; design: expressed in transfected cells; host or cells: U87; details: concentration range 0.15 nM to 80 μM; reference Dynorphin A
Chain of KOR (P41145 whole entry): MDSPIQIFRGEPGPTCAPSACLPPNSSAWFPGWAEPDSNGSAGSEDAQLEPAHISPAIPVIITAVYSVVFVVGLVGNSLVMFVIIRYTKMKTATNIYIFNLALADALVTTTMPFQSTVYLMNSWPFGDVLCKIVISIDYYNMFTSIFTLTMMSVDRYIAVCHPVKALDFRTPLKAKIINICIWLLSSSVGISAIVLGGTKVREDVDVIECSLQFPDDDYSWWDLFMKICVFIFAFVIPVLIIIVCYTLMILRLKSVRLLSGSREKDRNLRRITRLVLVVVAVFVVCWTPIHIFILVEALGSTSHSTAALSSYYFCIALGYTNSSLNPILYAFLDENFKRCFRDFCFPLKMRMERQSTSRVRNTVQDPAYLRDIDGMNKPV
Protocol: The ability of the different molecules to activate the four opioid receptors MOR, DOR, KOR and NOP that are known to mediate in vivo analgesic effects was tested using the NanoBiT-based β-arrestin-2 recruitment assay in a concentration range of 0.15 nM to 80 μM. For each of these receptors a reference ligand corresponding to an endogenous opioid peptide i.e. Met-enkephalin, BAM22, Dynorphin A and Nociceptin, respectively was included.
as §2
For concentration-response curves (FIG. 2), the signal recorded with a saturating concentration of full agonist for each receptor was set as 100%. […]

ACKR3 [1] = molecular target: T2, ACKR3 (Homo sapiens, UniProt P25106); test: NanoBiT-based β-arrestin-2 recruitment assay, human ACKR3 in U87 cells; assay type: cell-based; design: expressed in transfected cells; host or cells: U87; details: for agonist efficacy at hACKR3 compared to CXCL-12: NanoBiT β-arrestin recruitment, reference ligand CXCL-12; for EC50: NanoBiT, U87 cells, FIG. 1 section A, read-out: EC50, β-arrestin-2 recruitment to hACKR3
Protocol: as §1, §2, §3
Target sequence in this assay (P25106 whole entry): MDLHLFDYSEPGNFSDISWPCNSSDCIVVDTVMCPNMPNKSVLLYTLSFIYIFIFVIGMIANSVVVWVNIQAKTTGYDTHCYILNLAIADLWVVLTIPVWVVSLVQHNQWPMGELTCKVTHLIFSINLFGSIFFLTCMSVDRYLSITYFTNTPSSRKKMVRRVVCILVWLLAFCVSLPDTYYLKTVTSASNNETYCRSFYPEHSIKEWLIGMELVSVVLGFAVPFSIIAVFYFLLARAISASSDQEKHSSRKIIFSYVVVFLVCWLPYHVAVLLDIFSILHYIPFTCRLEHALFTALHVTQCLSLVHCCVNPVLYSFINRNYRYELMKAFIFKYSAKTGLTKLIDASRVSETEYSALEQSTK
Target sequence in this assay (P32121 whole entry partner): as the sequence (P32121 whole entry partner) above

ACKR3 [2] = molecular target: T2, ACKR3; test: Binding competition assay with CXCL12-AF647 on U87-ACKR3 cells; design: expressed in transfected cells; host or cells: U87-ACKR3 (ACKR3-negative U87 as control); details: 5 nM CXCL12-AF647, FIG. 1 section D
Source text: Dead cells were excluded using Zombie Green viability dye (BioLegend). […] Ligand binding was quantified by mean fluorescence intensity on a BD FACS Fortessa cytometer (BD Biosciences) using FACS Diva 8.01 (BD Biosciences).
Target sequence in this assay (P25106 whole entry): as the sequence (P25106 whole entry) above

ACKR4 = molecular target: T3, ACKR4 (Homo sapiens, UniProt Q9NPB9); test: NanoBiT β-arrestin-1 recruitment, receptor selectivity panel, ACKR4; assay type: cell-based; details: higher concentrations (3 μM, 10 μM); FIG. 3 sections B and C
T3 construct: expressed in transfected cells; host or cells: U87
T3 sequence (Q9NPB9 1-350): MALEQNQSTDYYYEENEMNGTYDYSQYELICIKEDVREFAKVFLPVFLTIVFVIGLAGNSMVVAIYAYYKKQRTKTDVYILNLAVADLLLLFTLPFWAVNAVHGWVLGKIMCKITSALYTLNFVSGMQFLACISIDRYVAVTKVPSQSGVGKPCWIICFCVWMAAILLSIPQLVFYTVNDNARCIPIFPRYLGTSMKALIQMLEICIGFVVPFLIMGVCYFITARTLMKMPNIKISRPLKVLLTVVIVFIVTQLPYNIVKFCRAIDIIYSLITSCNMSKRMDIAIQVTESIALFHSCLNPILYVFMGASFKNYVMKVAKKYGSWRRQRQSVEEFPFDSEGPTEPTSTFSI
Protocol: To further assess the selectivity profile of the compounds of the invention towards ACKR3, the ability to activate the 21 classical and 4 atypical chemokines receptors and related receptors was tested using the NanoBiT assay based β-arrestin-1 recruitment described previously. The 4 classical opioid receptors described above were also included in the experimental setup. The compounds WW-1 (conolidine) and WW-12 were tested at three different concentrations, 1 μM, 3 μM and 10 μM.
This possible off-target effect was further characterized by comparing the ability of the two molecules to activate receptors ACKR4, CX3CR1 and CCR3 with reference ligands for the receptors, namely CCL19, CX3CL1 and CCL13.
Ligand-induced β-arrestin recruitment to chemokine and opioid receptors was monitored by NanoLuc complementation assay (NanoBiT, Promega). […] Ligand-induced, β-arrestin to GPCRs was evaluated with a Mithras LB940 luminometer (Berthold Technologies, running on MicroWin 2010 5.19 software (Mikrotek Laborsysteme)) for 20 minutes.
For single dose screening experiments on all chemokine receptors(FIG. 3), the results are represented as percentage of signal monitored with 100 nM of one known agonist chemokine listed in the IUPHAR repository of chemokine receptor ligands which was added as positive control.

`C/C=C1/CN2CC[C@H]1C(=O)c1[nH]c3ccccc3c1C2` [WW-1, (4E,5R)-4-ethylidene-1,4,5,7-tetrahydro-2,5-ethanoazocino[4,3-b]indol-6(3H)-one] was tested, and the “agonist efficacy at mACKR3 compared to CXCL-12” value (mouse ACKR3) was “full agonists”, the EC50 (mouse ACKR3) was 22 µM and the “activation of KOR (β-arrestin recruitment)” value (KOR) was “not active”. The “agonist efficacy at hACKR3 compared to CXCL-12” value (ACKR3 [1]) was “full agonists”, the “agonist efficacy at hACKR3 compared to CXCL-12” value (ACKR3 [1]; listed as conolidine) was “full agonist” and the EC50 (ACKR3 [1]) was 16.6 µM. For the same molecule, the IC50 (ACKR3 [2]) was 39.9 µM and the “activation of ACKR4 (β-arrestin-1 recruitment) in receptor panel” value (ACKR4) was “weak activation”.
`C/C=C1/CN(CCCCC)CC[C@H]1C(=O)c1cc2ccccc2[nH]1` [WW-12, [(3E,4R)-3-ethylidene-1-pentylpiperidin-4-yl](1H-indol-2-yl)methanone] was tested, and the “agonist efficacy at mACKR3 compared to CXCL-12” value (mouse ACKR3) was “full agonists”, the EC50 (mouse ACKR3) was 0.9 µM and the “activation of KOR (β-arrestin recruitment)” value (KOR) was “not active”. For the same molecule, the “agonist efficacy at hACKR3 compared to CXCL-12” value (ACKR3 [1]) was “full agonists”, the EC50 (ACKR3 [1]) was 0.7 µM and the IC50 (ACKR3 [2]) was 2.7 µM. The “activation of ACKR4 (β-arrestin-1 recruitment) in receptor panel” value (ACKR4) was “weak activation”.
